Measurements as given in patent US20260102505A1, “ANTI-CD45-IGN ANTIBODY DRUG CONJUGATES AND USES THEREOF” (Vor Biopharma Inc., priority 2022, published 2026).

Experiments:
[1] = tested on: erythroid-specific BCL11A enhancer-edited CD34+ cells; experiment: Conditioning and engraftment of BCL11A enhancer-edited CD34+ cells in rhesus macaques; assay type: in vivo; conditions: busulfan 5.5 mg/kg×4 days, 25-34 weeks
Protocol: Rhesus macaques were treated with a single dose of anti-CD45-ADC (Ab5-DGN549) at either 0.2 or 0.3 mg/kg followed by engraftment of erythroid-specific BCL11A enhancer-edited CD34+ cells.
For transplant studies, rhesus macaque CD34+ HSPCs were electroporated with 3×NLS SpCas9 protein and two RNAs targeting the +55 and +58 BCL11A erythroid enhancers.
A similar experiment was performed in Rhesus macaques. Rhesus macaques were treated with either 0.2 or 0.3 mg/kg of an anti-CD45-ADC as a single IV bolus. At day 10, the macaques underwent an HSC transplant with autologous gene-edited BCL11a enhancer −/− cells, and were monitored over time (FIG. 15A). A cohort of macaques were treated with Busulfan (5.5-6 mg/kg QDx4) as a control.
Two additional rhesus macaques were conditioned with 0.2 mg/kg anti-CD45 ADC and infused with autologous HSPCs transduced with a barcoded lentiviral vector.

[2] = tested on: recurrent angioimmunoblastic T-cell lymphoma patient-derived xenograft; experiment: PDX model of recurrent angioimmunoblastic T-cell lymphoma, survival; assay type: in vivo, mice
Protocol: Anti-CD45-ADC was further tested in a PDX model of recurrent angioimmunoblastic T-cell lymphoma. A single dose of anti-CD45-ADC (Ab5-DGN549) was administered to a group of mice when tumor levels reached ˜10% in peripheral blood, around day 27. Control groups received either PBS, isotype-ADC, CD45 mAb, ARA-C at 30 mg/kg QDx5, or Dexamethasone at 5 mg/kg Q3Dx10. Long-term disease survival was monitored.

[3] = tested on: relapsed/refractory acute myeloid leukemia (AML) patient-derived xenograft; experiment: PDX model of relapsed/refractory AML, survival; assay type: in vivo, mice; conditions: R/R AML PDX; 30 mg/kg QDx5
Protocol: Anti-malignancy activity of an anti-CD45-ADC was assessed using a patient-derived xenograft (PDX) model of relapsed/refractory acute myeloid leukemia (AML). A single dose of anti-CD45-ADC (Ab5-DGN549) was administered to a group of mice when tumor levels reached ˜10% in peripheral blood, around day 24. Control groups received either PBS, isotype-ADC, CD45 mAb, or ARA-C at 30 mg/kg QDx5. Long-term, disease-free survival was monitored.
The anti-malignancy activity was assessed in a patient-derived xenograft (PDX) model of relapsed/refractory acute myeloid leukemia (AML).

CS(=O)(=O)OCCCCOS(C)(=O)=O [Busulfan, reference compound]
T cell editing [1]: 8-31%

Nc1ccn([C@@H]2O[C@H](CO)[C@@H](O)[C@@H]2O)c(=O)n1 [ARA-C, reference compound]
median survival ([2]; 30 mg/kg QDx5): 48 days
median survival [3]: 64 days

C[C@@H]1C[C@H]2[C@@H]3CCC4=CC(=O)C=C[C@]4(C)[C@@]3(F)[C@@H](O)C[C@]2(C)[C@@]1(O)C(=O)CO [Dexamethasone]
median survival ([2]; 5 mg/kg Q3Dx10): 48 days
